From patent publication US7595404B2, “Thiazolyl-substituted carbocyclic 1,3-diones as pesticidal agents” (Bayer CropScience AG, priority 2001, dated 2009)

Assays:
Sinapis = experiment: Post-emergence test, Sinapis; format: in vivo; conditions: post-emergence/greenhouse; 250 g a.i./ha; after three weeks
Procedure: (§1) • Solvent: 5 parts by weight of acetone • Emulsifier: 1 part by weight of alkylaryl polyglycol ether
(§2) To produce a suitable preparation of active compound, 1 part by weight of active compound is mixed with the stated amount of solvent, the stated amount of emulsifier is added and the concentrate is diluted with water to the desired concentration.
(§3) Test plants of a height of 5-15 cm are sprayed with the preparation of active compound such that the particular amounts of active compound desired are applied per unit area. The concentration of the spray liquor is chosen such that the particular amounts of active compound desired are applied in 1000 l of water/ha.
(§4) After three weeks, the degree of damage to the plants is rated in % damage in comparison to the development of the untreated control.
(§5) The figures denote: • 0% =no effect (like untreated control) • 100% =total destruction

Avena fatua [1] = experiment: Post-emergence test, Avena fatua; format: in vivo; conditions: post-emergence/greenhouse; 250 g a.i./ha; after three weeks
Procedure: as §1, §2, §3, §4, §5

Sugar beet = experiment: Pre-emergence test, Sugar beet; format: in vivo; conditions: pre-emergence/greenhouse; 125 g a.i./ha; after three weeks; crop
Procedure: as §1, §2
(§6) Seeds of the test plants are sown in normal soil. After about 24 hours, the soil is sprayed with the preparation of active compound such that the particular amounts of active compound desired are applied per unit area. The concentration of the spray liquor is chosen such that the particular amounts of active compound desired are applied in 1000 l of water/ha.
as §4, §5

Alopecurus [2] = experiment: Pre-emergence test, Alopecurus; format: in vivo; conditions: pre-emergence/greenhouse; 125 g a.i./ha; after three weeks
Procedure: as §1, §2, §6, §4, §5

Alopecurus [3] = experiment: Post-emergence test, Alopecurus; format: in vivo; conditions: post-emergence/greenhouse; 250 g a.i./ha; after three weeks
Procedure: as §1, §2, §3, §4, §5

Digitaria = experiment: Pre-emergence test, Digitaria; format: in vivo; conditions: pre-emergence/greenhouse; 125 g a.i./ha; after three weeks
Procedure: as §1, §2, §6, §4, §5

Avena fatua [4] = experiment: Pre-emergence test, Avena fatua; format: in vivo; conditions: pre-emergence/greenhouse; 125 g a.i./ha; after three weeks
Procedure: as §1, §2, §6, §4, §5

Setaria [5] = experiment: Post-emergence test, Setaria; format: in vivo; conditions: post-emergence/greenhouse; 250 g a.i./ha; after three weeks
Procedure: as §1, §2, §3, §4, §5

Polygonum = experiment: Pre-emergence test, Polygonum; format: in vivo; conditions: pre-emergence/greenhouse; 125 g a.i./ha; after three weeks
Procedure: as §1, §2, §6, §4, §5

Pyricularia oryzae = format: cell-based; conditions: 50% inhibition of fungal growth, tested at 0.1, 1, 10 and 100 ppm, 22° C., 3-5 days, photometric 620 nm
Septoria tritici = experiment: In vitro test for the ED50 determination in microorganisms, Septoria tritici; format: cell-based; conditions: 50% inhibition of fungal growth, tested at 0.1, 1, 10 and 100 ppm, 22° C., 3-5 days, photometric 620 nm
Ustilago avenae = experiment: In vitro test for the ED50 determination in microorganisms, Ustilago avenae; format: cell-based; conditions: 50% inhibition of fungal growth, tested at 0.1, 1, 10 and 100 ppm, 22° C., 3-5 days, photometric 620 nm
[6] = tested on: greenhouse red spider mite (Tetranychus urticae); experiment: Tetranychus test (OP-resistant/dip treatment); format: in vivo; conditions: 100 ppm, dipped bean plants
Procedure: Tetranychus test (OP-Resistant/Dip Treatment)
• Solvent: 30 parts by weight of dimethylformamide • Emulsifier: 1 part by weight of alkylaryl polyglycol ether
To produce a suitable preparation of active compound, 1 part by weight of active compound is mixed with the stated amounts of solvent and emulsifier, and the concentrate is diluted with emulsifier-containing water to the desired concentration.
Bean plants (Phaseolus vulgaris) which are heavily infested by all stages of the greenhouse red spider mite (Tetranychus urticae) are dipped into a preparation of active compound of the desired concentration.
After the desired period of time, the effect in % is determined. 100% means that all spider mites have been killed; 0% means that none of the spider mites have been killed.

Meloidogyne incognita = experiment: Meloidogyne test; format: in vivo; conditions: 20 ppm active compound, nematicidal action by gall formation on lettuce roots
Procedure: Meloidogyne Test • Solvent: 30 parts by weight of dimethylformamide • Emulsifier: 1 part by weight of alkylaryl polyglycol ether To produce a suitable preparation of active compound, 1 part by weight of active compound is mixed with the stated amounts of solvent and emulsifier, and the concentrate is diluted with water to the desired concentration. Containers are filled with sand, solution of active compound, Meloidogyne incognita egg/larvae suspension and lettuce seeds. The lettuce seeds germinate the plants develop. On the roots, galls are formed. After the desired period of time, the nematicidal action is determined in % by the gall formation. 100% means that no galls have been found; 0% means that the number of galls on the treated plants corresponds to that of the untreated control.

Setaria [7] = experiment: Pre-emergence test, Setaria; format: in vivo; conditions: pre-emergence/greenhouse; 125 g a.i./ha; after three weeks
Procedure: as §1, §2, §6, §4, §5

Soya bean = experiment: Pre-emergence test, Soya bean; format: in vivo; conditions: pre-emergence/greenhouse; 125 g a.i./ha; after three weeks; crop
Procedure: as §1, §2, §6, §4, §5

Stellaria = experiment: Pre-emergence test, Stellaria; format: in vivo; conditions: pre-emergence/greenhouse; 125 g a.i./ha; after three weeks
Procedure: as §1, §2, §6, §4, §5

Lolium = experiment: Pre-emergence test, Lolium; format: in vivo; conditions: pre-emergence/greenhouse; 125 g a.i./ha; after three weeks
Procedure: as §1, §2, §6, §4, §5

Wheat = experiment: Pre-emergence test, Wheat; format: in vivo; conditions: pre-emergence/greenhouse; 125 g a.i./ha; after three weeks; crop
Procedure: as §1, §2, §6, §4, §5

[8] = tested on: caterpillars of the armyworm (Spodoptera frugiperda); experiment: Spodoptera frugiperda test; format: in vivo; conditions: 500 ppm, dipped cabbage leaves
Procedure: (§7) Spodoptera Frugiperda Test • Solvent: 7 parts by weight of dimethylformamide • Emulsifier: 2 parts by weight of alkylaryl polyglycol ether To produce a suitable preparation of active compound, 1 part by weight of active compound is mixed with the stated amounts of solvent and emulsifier, and the concentrate is diluted with emulsifier-containing water to the desired concentration. Cabbage leaves (Brassica oleracea) are treated by being dipped into the preparation of active compound of the desired concentration and are populated with caterpillars of the armyworm (Spodoptera frugiperda) while the leaves are still moist. After the desired period of time, the kill in % is determined. 100% means that all caterpillar larvae have been killed; 0% means that none of the caterpillar have been killed.

[9] = tested on: larvae of the mustard beetle (Phaedon cochleariae); experiment: Phaedon larvae test; format: in vivo; conditions: 500 ppm, dipped cabbage leaves
Procedure: as §7, with “Phaedon Larvae Test” for “Spodoptera Frugiperda Test”, “with larvae” for “with caterpillars”, “the mustard beetle (Phaedon cochleariae)” for “the armyworm (Spodoptera frugiperda)”, “all beetle” for “all caterpillar”, “the beetle larvae” for “the caterpillar”

Sugar-beet = experiment: Post-emergence test, Sugar beet; format: in vivo; conditions: post-emergence/greenhouse; 250 g a.i./ha; after three weeks; crop
Procedure: as §1, §2, §3, §4, §5

Echinochloa = experiment: Post-emergence test, Echinochloa; format: in vivo; conditions: post-emergence/greenhouse; 250 g a.i./ha; after three weeks
Procedure: as §1, §2, §3, §4, §5

Matricaria = experiment: Pre-emergence test, Matricaria; format: in vivo; conditions: pre-emergence/greenhouse; 125 g a.i./ha; after three weeks
Procedure: as §1, §2, §6, §4, §5

Oilseed rape = experiment: Pre-emergence test, Oilseed rape; format: in vivo; conditions: pre-emergence/greenhouse; 125 g a.i./ha; after three weeks; crop
Procedure: as §1, §2, §6, §4, §5

[10] = tested on: green peach aphid (Myzus persicae); experiment: Myzus test (systemic action); format: in vivo; conditions: 20 ppm, watering of infested Savoy cabbage (systemic)
Procedure: Myzus Test (Systemic Action) • Solvent: 7 parts by weight of dimethylformamide • Emulsifier: 2 parts by weight of alkylaryl polyglycol ether To produce a suitable preparation of active compound, 1 part by weight of active compound is mixed with the stated amounts of solvent and emulsifier, and the concentrate is diluted with emulsifier-containing water to the desired concentration. Savoy cabbage (Brassica oleracea) which is heavily infested by the green peach aphid (Myzus persicae) is watered with in each case 10 ml of preparation of active compound of the desired concentration such that the preparation of active compound penetrates into the soil without wetting the seedling. The active compound is taken up by the roots and transferred into the seedling. After the desired period of time, the kill in % is determined. 100% means that all aphids have been killed; 0% means that none of the aphids have been killed.

Bromus = experiment: Pre-emergence test, Bromus; format: in vivo; conditions: pre-emergence/greenhouse; 125 g a.i./ha; after three weeks
Procedure: as §1, §2, §6, §4, §5

Abutilon = experiment: Pre-emergence test, Abutilon; format: in vivo; conditions: pre-emergence/greenhouse; 125 g a.i./ha; after three weeks
Procedure: as §1, §2, §6, §4, §5

Galium = experiment: Post-emergence test, Galium; format: in vivo; conditions: post-emergence/greenhouse; 250 g a.i./ha; after three weeks
Procedure: as §1, §2, §3, §4, §5

SMILES | % damage, Sinapis (Sinapis) [%] | % damage, Avena fatua (Avena fatua [1]) [%] | % damage, Alopecurus (Alopecurus [2]) [%] | % damage, Alopecurus (Alopecurus [3]) [%] | % damage, Setaria (Setaria [5]) [%] | Kill rate in % after 7 d [6] [%] | % damage, Setaria (Setaria [7]) [%] | % damage, Soya bean (Soya bean) [%] | % damage, Stellaria (Stellaria) [%] | % damage, Lolium (Lolium) [%] | Kill rate in % after 7 d [8] [%] | also measured
CCc1sc(-c2ccc(Cl)cc2)nc1C1=C(O)C2(CCCCC2)CC1=O [Example I-1-a-3] | 80 | 100 | 95 | 90 | 100 |  |  |  |  |  |  | % damage, Sugar beet (Sugar beet): 0%; % damage, Digitaria (Digitaria): 100%; % damage, Avena fatua (Avena fatua [4]): 100%; % damage, Polygonum (Polygonum): 100%
Cc1sc(-c2ccc(Cl)cc2)nc1C1=C(O)CCCC1=O [Example I-2-a-2] |  |  |  |  |  | 99 |  |  |  |  |  | ED50 value (Pyricularia oryzae): 1.96 ppm; ED50 value (Septoria tritici): <0.1 ppm; ED50 value (Ustilago avenae): <0.1 ppm
CCOC(=O)OC1=C(c2nc(-c3ccc(Cl)cc3)sc2CC)C(=O)CC12CCCCC2 [Example I-1-c-3] | 80 | 100 | 95 | 100 | 100 | 98 | 100 | 0 | 70 | 100 |  | Kill rate in % after 14 d (Meloidogyne incognita): 100%; % damage, Wheat (Wheat): 10%
CCOC(=O)OC1=C(c2nc(-c3ccc(Cl)cc3)sc2C)C(=O)CC1(C)C [Example I-1-c-1] | 70 | 90 |  |  | 100 | 95 |  |  |  |  | 100 | Kill rate in % after 7 d [9]: 100%; % damage, Sugar-beet (Sugar-beet): 0%; % damage, Echinochloa (Echinochloa): 100%
Cc1sc(-c2ccc(Cl)cc2)nc1C1=C(O)C(C)(C)CC1=O [Example I-1-a-1] | 70 | 100 |  | 100 | 100 | 100 | 100 | 0 | 100 | 100 |  | Kill rate in % after 14 d (Meloidogyne incognita): 95%; % damage, Matricaria (Matricaria): 100%
CCOC(=O)OC1=C(c2nc(-c3ccc(Cl)cc3)sc2C)C(=O)CC12CCCCC2 [Example I-1-c-2] |  |  | 95 |  |  |  |  |  | 100 | 100 |  | % damage, Digitaria (Digitaria): 100%; % damage, Oilseed rape (Oilseed rape): 0%; Kill rate in % after 10 d [10]: 95%
Cc1sc(-c2ccc(Cl)cc2)nc1C1=C(O)CC(C)(C)CC1=O [Example I-2-a-1] |  | 95 |  | 90 | 100 | 98 | 100 | 0 |  | 100 | 100 | % damage, Bromus (Bromus): 95%; % damage, Sugar-beet (Sugar-beet): 0%; % damage, Abutilon (Abutilon): 70%; % damage, Echinochloa (Echinochloa): 100%
Cc1sc(-c2ccc(Cl)cc2)nc1C1=C(O)C(C)(C)CCC1=O [Example I-2-a-3] |  |  |  |  |  |  |  |  |  |  |  | ED50 value (Pyricularia oryzae): <0.1 ppm; ED50 value (Septoria tritici): <0.1 ppm; ED50 value (Ustilago avenae): 0.1 ppm
CCOC(=O)OC1=C(c2nc(-c3ccc(Cl)cc3)sc2C)C(=O)CC(C)(C)C1 [Example I-2-c-1] |  | 100 |  | 90 | 100 | 100 |  |  |  |  | 100 | Kill rate in % after 7 d [9]: 100%; % damage, Galium (Galium): 80%
